# Data taken from patent publication US20090306133A1, “New Acetyl Coenzyme A Carboxylase (ACC) Inhibitors And Uses In Treatments Of Obesity And Diabetes Mellitus - 087” (ASTRAZENECA AB, priority 2007, published 2009).
# Key:
# [1] = target: Human recombinant Acetyl-CoA Carboxylase 2 (ACC2) (Homo sapiens, UniProt O00763); assay: Assay X: ACC2 inhibition, inorganic phosphate (malachite green); assay type: biochemical; settings: Assay X: 37° C., 1.5 h, 5 min pre-incubation
# Description: (§1) Human recombinant Acetyl-CoA Carboxylase 1 and Acetyl-CoA Carboxylase 2 (ACC1 and ACC2) were assayed by determining the amount of inorganic phosphate (Pi) generated. Pre-incubation of 15 μL enzyme together with 0.75 μL DMSO+/−compound for 5 min was done before the reaction was initiated by the addition of 10 μL substrate. […] After 1.5 h the reaction was stopped by addition of 74 μL of water followed by extensive mixing, split and transfer of 2×40 μL to a read-plate encompassing 30 μL distilled H2O per well (n=2→n=4). Colour reaction was initiated by addition of 30 μL malachite green reagent per well and allowed 15 min before absorbance reading of the plates at 660 nm. The malachite green reagent was prepared by mixing 16.4 mL ammonium molybdate solution (7.5%), 1.64 mL Tween (11%) with 82 mL Malachite Green/H2SO4-solution (0.7 g Malachite Green to 1000 mL of 10% (v/v) H2SO4).
# (§2) All compounds were tested in triplicate at 10 different concentrations. Control compound (0, 50 and 100% effect) was included on each plate. […] Curve fitting was done using the following equation: y=(A+((B−A)/(1+((x/C)̂D)))) where A and B represents the curve bottom (% inhibition) and the total amplitude (% inhibition), respectively, whereas C and D are the apparent IC50 and curve slope, respectively.
# [2] = target: Human recombinant Acetyl-CoA Carboxylase 1 (ACC1) (Homo sapiens, UniProt Q13085); assay: Assay X: ACC1 inhibition, inorganic phosphate (malachite green); assay type: biochemical; settings: Assay X: 37° C., 1.5 h, 5 min pre-incubation
# Description: as §1, §2
# Chain of Human recombinant Acetyl-CoA Carboxylase 2 (ACC2) (O00763 whole entry): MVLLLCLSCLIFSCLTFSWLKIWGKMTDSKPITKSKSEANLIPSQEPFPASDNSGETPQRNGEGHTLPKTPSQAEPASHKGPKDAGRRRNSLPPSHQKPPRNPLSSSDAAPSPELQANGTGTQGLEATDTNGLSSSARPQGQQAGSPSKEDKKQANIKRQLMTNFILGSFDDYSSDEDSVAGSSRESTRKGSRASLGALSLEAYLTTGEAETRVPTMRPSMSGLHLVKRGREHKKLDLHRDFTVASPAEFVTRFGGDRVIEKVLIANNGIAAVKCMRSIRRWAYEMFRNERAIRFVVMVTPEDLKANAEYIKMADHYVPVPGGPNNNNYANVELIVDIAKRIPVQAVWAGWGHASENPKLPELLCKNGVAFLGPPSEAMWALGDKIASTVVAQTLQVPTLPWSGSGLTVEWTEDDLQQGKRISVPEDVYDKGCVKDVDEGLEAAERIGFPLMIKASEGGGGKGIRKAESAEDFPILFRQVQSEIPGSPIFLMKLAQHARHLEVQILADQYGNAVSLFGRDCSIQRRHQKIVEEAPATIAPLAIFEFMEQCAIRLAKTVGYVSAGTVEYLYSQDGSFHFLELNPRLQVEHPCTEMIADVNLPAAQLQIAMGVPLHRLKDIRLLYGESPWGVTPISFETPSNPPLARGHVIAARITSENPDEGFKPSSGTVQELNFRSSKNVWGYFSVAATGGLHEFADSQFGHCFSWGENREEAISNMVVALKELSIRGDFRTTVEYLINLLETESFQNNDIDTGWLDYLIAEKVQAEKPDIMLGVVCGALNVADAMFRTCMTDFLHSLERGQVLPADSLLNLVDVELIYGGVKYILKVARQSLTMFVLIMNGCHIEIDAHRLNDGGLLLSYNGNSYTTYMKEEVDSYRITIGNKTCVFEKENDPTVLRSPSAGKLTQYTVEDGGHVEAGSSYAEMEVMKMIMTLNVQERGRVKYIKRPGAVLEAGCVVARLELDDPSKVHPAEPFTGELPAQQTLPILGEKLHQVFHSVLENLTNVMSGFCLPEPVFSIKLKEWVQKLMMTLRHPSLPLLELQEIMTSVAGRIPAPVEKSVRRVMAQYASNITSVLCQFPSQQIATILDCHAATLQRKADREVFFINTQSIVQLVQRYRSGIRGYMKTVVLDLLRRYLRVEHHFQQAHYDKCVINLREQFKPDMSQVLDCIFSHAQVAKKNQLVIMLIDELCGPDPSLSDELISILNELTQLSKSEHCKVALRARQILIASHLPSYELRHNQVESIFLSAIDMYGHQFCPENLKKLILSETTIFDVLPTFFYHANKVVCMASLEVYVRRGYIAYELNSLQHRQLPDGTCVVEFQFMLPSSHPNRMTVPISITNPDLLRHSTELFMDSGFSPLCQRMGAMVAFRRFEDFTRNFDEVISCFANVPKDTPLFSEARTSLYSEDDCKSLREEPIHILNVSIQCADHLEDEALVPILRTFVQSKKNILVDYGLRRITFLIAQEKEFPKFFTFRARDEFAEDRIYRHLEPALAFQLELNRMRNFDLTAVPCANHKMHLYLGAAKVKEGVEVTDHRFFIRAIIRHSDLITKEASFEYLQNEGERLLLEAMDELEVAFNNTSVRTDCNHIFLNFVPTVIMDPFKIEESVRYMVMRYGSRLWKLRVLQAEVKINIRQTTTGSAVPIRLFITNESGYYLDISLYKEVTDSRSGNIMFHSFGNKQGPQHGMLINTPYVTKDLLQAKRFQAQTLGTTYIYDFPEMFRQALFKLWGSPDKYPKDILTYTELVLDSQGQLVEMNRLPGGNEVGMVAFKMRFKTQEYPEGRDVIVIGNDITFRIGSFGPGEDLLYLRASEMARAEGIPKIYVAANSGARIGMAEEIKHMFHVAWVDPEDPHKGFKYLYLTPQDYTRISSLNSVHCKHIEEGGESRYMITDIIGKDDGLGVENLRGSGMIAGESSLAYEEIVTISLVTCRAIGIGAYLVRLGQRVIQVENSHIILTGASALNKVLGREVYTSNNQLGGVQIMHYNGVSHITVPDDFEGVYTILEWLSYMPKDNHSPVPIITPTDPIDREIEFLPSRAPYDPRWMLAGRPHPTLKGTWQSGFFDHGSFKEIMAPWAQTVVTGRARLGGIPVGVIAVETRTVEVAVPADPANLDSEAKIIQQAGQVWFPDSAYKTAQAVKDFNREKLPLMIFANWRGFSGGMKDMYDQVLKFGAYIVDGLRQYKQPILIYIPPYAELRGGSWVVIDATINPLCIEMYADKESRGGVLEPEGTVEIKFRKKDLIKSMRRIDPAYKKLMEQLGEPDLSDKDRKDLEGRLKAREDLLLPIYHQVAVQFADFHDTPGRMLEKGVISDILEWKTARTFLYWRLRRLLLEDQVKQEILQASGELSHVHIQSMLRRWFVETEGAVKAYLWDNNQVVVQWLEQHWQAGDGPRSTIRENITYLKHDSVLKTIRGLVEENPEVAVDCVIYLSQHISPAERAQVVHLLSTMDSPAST
Compound,IC50 [1],IC50 [2]
"CC(C)(C)OC(=O)NC[C@H]1CC[C@H](CNC(=O)c2cc(N3CCC(CC(O)CN4CCOCC4)CC3)nc3ccccc23)CC1 (relative stereo) [Example 207, tert-Butyl[(trans-4-{[({2-[4-(2-hydroxy-3-morpholin-4-ylpropyl)piperidin-1-yl]quinolin-4-yl}-carbonyl)amino]methyl}cyclohexyl)methyl]-carbamate]",0.13 µM,1.04 µM
"CC(C)(C)OC(=O)NC[C@H]1CC[C@H](CNC(=O)c2cc(N3CCC(CCN4CCC(O)C4)CC3)nc3ccccc23)CC1 (relative stereo) [Example 230, tert-Butyl{[trans-4-({[(2-{4-[2-(3-hydroxypyrrolidin-1-yl)ethyl]piperidin-1-yl}quinolin-4-yl)carbonyl]amino}-methyl)cyclohexyl]-methyl}carbamate]",0.16 µM,1.33 µM
"CC(C)(C)OC(=O)NC[C@H]1CC[C@H](CNC(=O)c2cc(N3CCC(CC(O)CN4CCOCC4)CC3)nc3ccccc23)CC1 (single isomer, unassigned) [Example 208, (R) or (S) tert-Butyl [(trans-4-{[({2-[4-(2-hydroxy-3-morpholin-4-ylpropyl)piperidin-1-yl]quinolin-4-yl}-carbonyl)amino]methyl}cyclohexyl)methyl]-carbamate]",0.17 µM,1.1 µM
"CC(C)(C)OC(=O)NC[C@H]1CC[C@H](CNC(=O)c2cc(N3CCC(CC(O)CN4CCCC4)CC3)nc3ccccc23)CC1 (single isomer, unassigned) [Example 209, (S) or (R) tert-Butyl [(trans-4-{[({2-[4-(2-hydroxy-3-pyrrolidin-1-ylpropyl)-piperidin-1-yl]quinolin-4-yl}carbonyl)amino]-methyl}cyclohexyl)methyl]carbamate]",0.11 µM,0.78 µM
"CC(C#N)OC(=O)NC[C@H]1CC[C@H](CNC(=O)c2cc(-c3ccc(N4CCN(C)CC4)nc3)nc3ccccc23)CC1 (stereo partly drawn) [Example 121, 1-Cyanoethyl[(trans-4-{[({2-[6-(4-methylpiperazin-1-yl)pyridin-3-yl]quinolin-4-yl}carbonyl)amino]methyl}cyclohexyl)methyl]carbamate]",1.37 µM,4.77 µM
"CC(=O)NCCOC(=O)NC[C@H]1CC[C@H](CNC(=O)c2cc(-c3ccc(N4CCN(C)CC4)nc3)nc3ccccc23)CC1 [Example 122, 2-Acetamidoethyl[(trans-4-{[({2-[6-(4-methylpiperazin-1-yl)pyridin-3-yl]quinolin-4-yl}carbonyl)amino]methyl}cyclohexyl)methyl]carbamate]",1.86 µM,8.13 µM
"CN1CCN(c2ccc(-c3cc(C(=O)NC[C@H]4CC[C@H](CNC(=O)OCC5CCOC5)CC4)c4ccccc4n3)cn2)CC1 (stereo partly drawn) [Example 126, Tetrahydrofuran-3-ylmethyl[(trans-4-{[({2-[6-(4-methylpiperazin-1-yl)pyridin-3-yl]quinolin-4-yl}carbonyl)amino]methyl}cyclohexyl)methyl]carbamate]",0.42 µM,1.67 µM
"CN1CCN(c2ccc(-c3cc(C(=O)NC[C@H]4CC[C@H](CNC(=O)OCC5CCCO5)CC4)c4ccccc4n3)cn2)CC1 (stereo partly drawn) [Example 127, Tetrahydrofuran-2-ylmethyl[(trans-4-{[({2-[6-(4-methylpiperazin-1-yl)pyridin-3-yl]quinolin-4-yl}carbonyl)amino]methyl}cyclohexyl)methyl]carbamate]",0.88 µM,3.78 µM
"CN1CCN(c2ccc(-c3cc(C(=O)NC[C@H]4CC[C@H](CNC(=O)OCCn5cccn5)CC4)c4ccccc4n3)cn2)CC1 [Example 129, 2-(1H-Pyrazol-1-yl)ethyl-[(trans-4-{[({2-[6-(4-methylpiperazin-1-yl)pyridin-3-yl]quinolin-4-yl}carbonyl)amino]methyl}cyclohexyl)methyl]carbamate]",2.44 µM,7.94 µM
"CN1CCN(c2ccc(-c3cc(C(=O)NC[C@H]4CC[C@H](CNC(=O)OCc5nccs5)CC4)c4ccccc4n3)cn2)CC1 [Example 130, 1,3-Thiazol-2-ylmethyl-[(trans-4-{[({2-[6-(4-methylpiperazin-1-yl)pyridin-3-yl]quinolin-4-yl}carbonyl)amino]methyl}cyclohexyl)methyl]carbamate]",0.44 µM,1.95 µM
"CN1CCN(c2ccc(-c3cc(C(=O)NC[C@H]4CC[C@H](CNC(=O)OCc5cnccn5)CC4)c4ccccc4n3)cn2)CC1 [Example 131, Pyrazin-2-ylmethyl-[(trans-4-{[({2-[6-(4-methylpiperazin-1-yl)pyridin-3-yl]quinolin-4-yl}carbonyl)amino]methyl}cyclohexyl)methyl]carbamate]",1.59 µM,5.25 µM
"CN1CCN(c2ccc(-c3cc(C(=O)NC[C@H]4CC[C@H](CNC(=O)OCCC#N)CC4)c4ccccc4n3)cn2)CC1 [Example 132, 2-Cyanoethyl[(trans-4-{[({2-[6-(4-methylpiperazin-1-yl)pyridin-3-yl]quinolin-4-yl}carbonyl)amino]methyl}cyclohexyl)methyl]carbamate]",1.86 µM,5.76 µM
"CC(C)(C)OC(=O)NC[C@H]1CC[C@H](CNC(=O)c2cc(-c3ccc(NCCCO)nc3)nc3ccccc23)CC1 [Example 150, tert-Butyl{[trans-4-({[(2-{6-[(3-hydroxypropyl)amino]pyridin-3-yl}quinolin-4-yl)carbonyl]amino}-methyl)cyclohexyl]methyl}carbamate]",0.13 µM,0.35 µM
"CC(C)(C)OC(=O)NC[C@H]1CC[C@H](CNC(=O)c2cc(-c3ccc(N4CCC(O)CC4)nc3)nc3ccccc23)CC1 [Example 151, tert-Butyl[(trans-4-{[({2-[6-(4-hydroxypiperidin-1-yl)pyridin-3-yl]-quinolin-4-yl}-carbonyl)amino]methyl}cyclohexyl)methyl]carbamate]",0.16 µM,0.61 µM
"CC(C)(C)OC(=O)NC[C@H]1CC[C@H](CNC(=O)c2cc(-c3ccc(N(CCO)CCO)nc3)nc3ccccc23)CC1 [Example 152, tert-Butyl{[trans-4-({[(2-{6-[bis(2-hydroxyethyl)amino]pyridin-3-yl}quinolin-4-yl)carbonyl]amino}-methyl)cyclohexyl]methyl}carbamate]",0.17 µM,0.48 µM
"CC(C)(C)OC(=O)NC[C@H]1CC[C@H](CNC(=O)c2cc(-c3ccc(N4CCC(C(N)=O)CC4)nc3)nc3ccccc23)CC1 [Example 153, tert-Butyl[(trans-4-{[({2-[6-(4-carbamoylpiperidin-1-yl)pyridin-3-yl]-quinolin-4-yl}carbonyl)amino]-methyl}cyclohexyl)methyl]carbamate]",0.13 µM,0.23 µM
"CC(C)(C)OC(=O)NC[C@H]1CC[C@H](CNC(=O)c2cc(-c3ccc(N4CCNCC4)nc3)nc3ccccc23)CC1 [Example 154, tert-Butyl({trans-4-[({[2-(6-piperazin-1-ylpyridin-3-yl)-quinolin-4-yl]-carbonyl}amino)methyl]cyclohexyl}methyl)carbamate]",0.05 µM,0.19 µM
"CC(C)(C)OC(=O)NC[C@H]1CC[C@H](CNC(=O)c2cc(-c3ccc(NCCOCCO)nc3)nc3ccccc23)CC1 [Example 155, tert-Butyl({trans-4-[({[2-(6-{[2-(2-hydroxyethoxy)ethyl]amino}pyridin-3-yl)quinolin-4-yl]-carbonyl}amino)-methyl]cyclohexyl}methyl)carbamate]",0.41 µM,1.1 µM
"COCCNc1ccc(-c2cc(C(=O)NC[C@H]3CC[C@H](CNC(=O)OC(C)(C)C)CC3)c3ccccc3n2)cn1 [Example 156, tert-Butyl{[trans-4-({[(2-{6-[(2-methoxyethyl)amino]pyridin-3-yl}quinolin-4-yl)carbonyl]amino}methyl)cyclohexyl]methyl}carbamate]",0.35 µM,0.81 µM
"Cc1cnc(CNc2ccc(-c3cc(C(=O)NC[C@H]4CC[C@H](CNC(=O)OC(C)(C)C)CC4)c4ccccc4n3)cn2)cn1 [Example 159, tert-Butyl({trans-4-[({[2-(6-{[(5-methylpyrazin-2-yl)methyl]amino}pyridin-3-yl)quinolin-4-yl]carbonyl}amino)methyl]cyclohexyl}methyl)carbamate]",0.28 µM,0.5 µM
"CN(C)[C@H]1CCN(c2ccc(-c3cc(C(=O)NC[C@H]4CC[C@H](CNC(=O)OC(C)(C)C)CC4)c4ccccc4n3)cn2)C1 [Example 160, tert-Butyl{[trans-4-({[(2-{6-[(3S)-3-(dimethylamino)-pyrrolidin-1-yl]pyridin-3-yl}quinolin-4-yl)-carbonyl]amino}methyl)cyclohexyl]methyl}carbamate]",0.07 µM,0.22 µM
"CC(C)(C)OC(=O)NC[C@H]1CC[C@H](CNC(=O)c2cc(-c3ccc(N4CCC(CO)CC4)nc3)nc3ccccc23)CC1 [Example 161, tert-Butyl{[trans-4-({[(2-{6-[4-(hydroxymethyl)piperidin-1-yl]pyridin-3-yl}-quinolin-4-yl)-carbonyl]amino}methyl)cyclohexyl]methyl}carbamate]",0.16 µM,0.3 µM
